# Where two headings read alike, the source gives them in different places.
# How the values were obtained:
# hBGT1 = target: T1, hBGT1 (Homo sapiens, UniProt P48065); test: [3H]GABA uptake at hBGT1 transiently expressed in tsA201 cells; type: cell-based
# T1 construct: expressed in transfected cells; host or cells: tsA201 (transient)
# T1 sequence (P48065 1-614): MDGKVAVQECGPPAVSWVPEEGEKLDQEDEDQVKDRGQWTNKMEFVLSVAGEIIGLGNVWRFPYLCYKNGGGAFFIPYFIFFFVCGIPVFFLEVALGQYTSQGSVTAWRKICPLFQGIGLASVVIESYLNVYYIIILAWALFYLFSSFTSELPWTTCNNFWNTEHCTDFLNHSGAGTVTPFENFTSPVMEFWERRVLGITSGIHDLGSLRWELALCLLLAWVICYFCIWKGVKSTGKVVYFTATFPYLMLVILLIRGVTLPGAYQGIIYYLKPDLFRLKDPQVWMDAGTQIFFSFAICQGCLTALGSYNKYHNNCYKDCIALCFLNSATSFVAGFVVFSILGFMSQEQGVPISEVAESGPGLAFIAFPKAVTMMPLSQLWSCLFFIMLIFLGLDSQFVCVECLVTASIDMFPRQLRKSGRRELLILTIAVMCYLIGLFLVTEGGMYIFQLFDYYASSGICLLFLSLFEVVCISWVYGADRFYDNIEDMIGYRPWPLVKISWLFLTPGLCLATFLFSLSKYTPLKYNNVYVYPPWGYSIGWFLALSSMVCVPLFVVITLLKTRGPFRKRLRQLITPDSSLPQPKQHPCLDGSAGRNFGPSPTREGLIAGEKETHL
# Method: (§1) The tsA201 cell line was used for transient expression while the MDCK II cell line express BGT1 endogenously. Both cell lines were cultured as described. tsA201 cells were transfected with DNA constructs (8 μg per 10 cm dish if not otherwise mentioned) using 40 μL PolyFect transfection reagent according to the manufacturer’s protocol (Qiagen, Venlo, Netherlands). The DNA constructs encoding hBGT1, hGAT1-3 [36], the mutated constructs hBGT1 Q299 and hGAT3 L314Q described previously, and hBGT Y453A were synthesized and sequence validated by Genscript (NJ, USA).
# The [^3H]GABA competition uptake assay was performed as previously described. […] Studies related to the inhibition curves with GABA and BPDBA at hBGT1 were obtained both with and without the presence of 10 μM ATP during the [^3H]GABA uptake assay.
# All compounds, except BAPTA/AM, were also present at the same concentration during the course of the actual [^3H]GABA uptake assay.
# (§2) The [^3H]GABA uptake data was normalized to the percentage of total uptake in the individual experiments in the presence of the lowest compound concentration or no compound present. Data presented is the pooled data of at least three independent experiments with three technical replicates. Concentration–response curves (CRCs) were fitted with GraphPad Prism (version 8.2.1, Yosemite, GraphPad Software, San Diego, CA, USA) by non-linear regression to the sigmoidal concentration response model: Y=Bottom+(Top-Bottom)/1+10^LogIC50-X∗nH where Top is the Top plateau, Bottom is the Bottom plateau, X is the logarithm of the concentration of the compound, LogIC50 is the concentration giving a response halfway between Top and Bottom,and nH is the Hill slope.
# (§3) The best fit for CRCs obtained with the [^3H]GABA uptake assay was identified by the extra-sum-of-squares F test (for convenience referred to as F test).
# canine BGT1 = target: T2, canine BGT1 (Canis lupus familiaris, UniProt P27799); test: [3H]GABA uptake at canine BGT1 endogenously expressed in MDCK II cells; type: cell-based
# T2 construct: the MDCK II cell line express BGT1 endogenously; endogenous in cells; host or cells: MDCK II
# T2 sequence (P27799 1-614): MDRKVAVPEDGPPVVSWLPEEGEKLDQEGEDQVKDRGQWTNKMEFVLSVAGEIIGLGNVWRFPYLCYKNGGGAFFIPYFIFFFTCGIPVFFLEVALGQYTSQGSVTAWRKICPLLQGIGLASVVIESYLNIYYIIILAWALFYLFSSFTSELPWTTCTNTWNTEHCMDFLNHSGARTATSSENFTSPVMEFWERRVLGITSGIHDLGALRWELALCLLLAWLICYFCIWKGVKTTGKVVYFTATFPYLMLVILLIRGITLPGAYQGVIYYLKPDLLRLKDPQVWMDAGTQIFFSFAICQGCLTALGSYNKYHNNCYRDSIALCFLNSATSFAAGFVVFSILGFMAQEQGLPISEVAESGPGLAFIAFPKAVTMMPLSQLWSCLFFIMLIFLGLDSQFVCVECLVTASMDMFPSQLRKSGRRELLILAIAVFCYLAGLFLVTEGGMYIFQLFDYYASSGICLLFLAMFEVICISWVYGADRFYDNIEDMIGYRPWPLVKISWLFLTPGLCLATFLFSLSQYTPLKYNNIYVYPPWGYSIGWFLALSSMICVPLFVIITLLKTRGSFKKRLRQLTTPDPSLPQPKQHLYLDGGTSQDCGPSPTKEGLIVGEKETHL
# Method: as §1, with “The HEK-293 and Flp-In CHO cell lines stably expressing mouse (m) and human (h) GATs, respectively, have been described previously and were cultured accordingly. The tsA201” for “The tsA201”
# The [^3H]GABA competition uptake assay was performed as previously described. A minor change, however, was introduced for uptake in MDCK II cells, in which 100 nM [^3H]GABA was used for a 15 min incubation period at 37 °C instead of 30 nM [^3H]GABA and 3 min incubation. Studies related to the inhibition curves with GABA and BPDBA at hBGT1 were obtained both with and without the presence of 10 μM ATP during the [^3H]GABA uptake assay.
# as §2, §3
# [1] = 30 min pre-incubation with 25 μM BAPTA/AM
# [2] = control: 30 min pre-incubation in assay buffer
smiles,measurement,setting,value
"Cc1ccsc1C(=CCCN(C)[C@H]1CCCC[C@H]1C(=O)O)c1sccc1C [SBV2-114, (1R,2S)-2-((4,4-bis(3-methylthiophen-2-yl)but-3-en-yl)(methyl)amino)cyclohexanecarboxylic acid]",inhibition profile (mono-/biphasic),"hBGT1; 30 nM [3H]GABA, 3 min, F test",biphasic
same,Frac,hBGT1; 2 μg cDNA (n=2),0.44
same,nH1,hBGT1; 2 μg cDNA (n=2),-0.86
same,nH2,hBGT1; 2 μg cDNA (n=2),-1.75
same,Frac,hBGT1; 4 μg cDNA (n=2),0.32
same,nH1,hBGT1; 4 μg cDNA (n=2),-1.31
same,nH2,hBGT1; 4 μg cDNA (n=2),1.62
same,Frac,hBGT1; [1],0.15
same,nH1,hBGT1; [1],-2.02
same,preferred curve fitting,hBGT1; 30 min pre-incubation with and presence of 1 μM A 804598,biphasic fit
same,preferred curve fitting,hBGT1; 30 min pre-incubation with and presence of 5 μM U-73122,biphasic fit
same,IC50,"hBGT1; IC50, high affinity component (low IC50), biphasic fit, 30 nM [3H]GABA, 3 min, tsA201, 8 μg cDNA",4.7 µM
same,IC50,"hBGT1; IC50, high affinity component, 30 min pre-incubation with 25 μM BAPTA/AM",5.2 µM
same,IC50,"hBGT1; IC50, high affinity component, control: 30 min pre-incubation at 37 °C in assay buffer",6.1 µM
same,% inhibition (Frac value) at the low IC50,hBGT1; biphasic fit,42%
same,Frac,hBGT1; cells pre-incubated for 10 min with SBV2-114 prior to uptake,0.34
same,Frac,hBGT1; [2],0.21
same,nH1,hBGT1; [2],-0.76
same,nH2,hBGT1; [2],-2.05
same,IC50,"hBGT1; pIC50 ± S.E.M., high affinity component, 2 μg cDNA (n=2), biphasic fit",3.39 µM
same,IC50,"hBGT1; pIC50 ± S.E.M., high affinity component, 4 μg cDNA (n=2), biphasic fit",2.19 µM
same,IC50,"hBGT1; pIC50 ± S.E.M., high affinity component, biphasic fit, 30 nM [3H]GABA, 3 min, tsA201, 8 μg cDNA",5.25 µM
same,Frac,"hBGT1; proportion of maximal response due to the more potent phase, 8 μg cDNA",0.42
same,IC50,"hBGT1; read-out: IC50, low affinity component (high IC50), biphasic fit, 30 nM [3H]GABA, 3 min, tsA201, 8 μg cDNA",556 µM
same,IC50,"hBGT1; read-out: IC50, low affinity component, 2 μg cDNA (n=2), biphasic fit",518 µM
same,IC50,"hBGT1; read-out: IC50, low affinity component, 4 μg cDNA (n=2), biphasic fit",514 µM
same,IC50,"hBGT1; read-out: IC50, low affinity component, 30 min pre-incubation with 25 μM BAPTA/AM",513 µM
same,IC50,"hBGT1; read-out: IC50, low affinity component, control: 30 min pre-incubation at 37 °C in assay buffer",507 µM
same,Frac,canine BGT1,0.38
same,IC50,"canine BGT1; IC50, high affinity component, biphasic fit, 100 nM [3H]GABA, 15 min",0.1 µM
same,IC50,"canine BGT1; pIC50 ± S.E.M., high affinity component, biphasic fit, 100 nM [3H]GABA, 15 min",0.105 µM
same,IC50,"canine BGT1; read-out: IC50, low affinity component, biphasic fit, 100 nM [3H]GABA, 15 min",251 µM
